Data reported in paper PMC4467156, “A new chemical inhibitor of angiogenesis and tumorigenesis that targets the VEGF signaling pathway upstream of Ras” (Oncotarget, 2015).

Key:
Water solubility = type: physicochemical
3T3-GFP cells = assay: Scratch wound closure assay, 3T3-GFP; type: cell-based; settings: wound closure after 24 h, 10% FCS, tested 3.125 μM to 100 μM
Source text: Using this assay, we screened the academic library of the University of Grenoble, which is composed of 1360 original molecules. Setting the threshold of significant responses at 75% of the maximal inhibition, we identified 80 inhibitory molecules. At this stage, we reasoned that molecules that would affect the cytoskeleton dynamics or the adhesion properties of any cell type would be positive in this assay but would not represent good candidates for further development. We thus decided to perform a secondary counterscreen of the first 80 selected compounds on GFP-expressing 3T3 fibroblasts (3T3-GFP) using the same scratch assay. We then focused our interest on the 5 molecules that inhibited more strongly HMEC-GFP than 3T3-GFP wound healing. […] We synthesized a series of 30 analogs and tested them at various concentrations both on HMEC-GFP and 3T3-GFP cells. […] Dansyl and naphthalimide aromatic groups, found in COB223 and COB227 respectively, appeared very efficient. The presence of the diaminomethyl group on dansyl is critical for the activity of COB223 as shown by the lower efficiency of COB235 (IC50 is 8 times higher than that of COB223). COB223 and COB227 contain a tert-butyloxycarbonyl function (BOC group) as a second hydrophobic group. Replacement of BOC by an amino group decreased the efficiency and the specificity (compare 05-102-L-B09 vs 05-06-L-D03, or COB227 vs COB228).
(§1) Confluent cell monolayers were wounded with a plastic pipet tip, washed gently with phosphate buffer saline (PBS) and treated with complete media containing molecules, as indicated. Cells were placed at 37°C into the incubator and photographed at indicated times. Quantitation of closure of the monolayer was performed using the NIH Image J program (http://rsbweb.nih.gov/ij/). Results are expressed as percentage of wound closure at t = 24 h as compared to the initial wound at t = 0 h.

HMEC-GFP cells = assay: Scratch wound closure assay, HMEC-GFP; type: cell-based, human; settings: Homo sapiens; wound closure after 24 h, 10% FCS, tested 3.125 μM to 100 μM
Source text: In order to adapt the endothelial scratch wounding assay to the constraints of high throughput screening, we decided to use an endothelial cell line rather than primary cultures for the sake of reproducibility. Since angiogenesis is triggered by capillary endothelial cells, we selected the HMEC-1 cell line which consists of human dermal microvascular endothelial cells stably expressing SV40 […] antigen. We infected this cell line with GFP-encoding retroviral particles and selected one clone (thereafter named HMEC-GFP) that presented a high level of fluorescence and a strong proliferation rate (doubling time in the presence of serum: 22 h). We controlled that GFP expression was stable over at least 50 passages and that these cells still expressed endothelial markers such as VE-cadherin and CD31. In a standard assay, HMEC-GFP cells were grown until confluence in 96-well plates in the presence of serum, scratched with the multi-tip dispenser of the HTS automat, gently rinsed twice to eliminate detached cells and cell debris that could liberate inflammatory and potentially angiogenic cytokines, and incubated for 24 h in the presence of serum and the compounds to be tested. Each well was photographed at time 0 h (after wounding) and 24 h under a motorized epifluorescence microscope and the digitized images were analyzed using Image J to determine the percentage of wound closure (Figure 1A, 1B). Under our standard conditions, the closure rate was 72 ± 4% in the positive controls and 27 ± 4.% in the negative controls.
as §1

HUVEC cells [1] = assay: Scratch assay on HUVEC with or without mitomycin C; type: cell-based, human; settings: HUVEC pretreated 24 h with 2 μg/mL mitomycin C
Description: as §1, with “0 h. […]” for “0 h.”
www.impactjournals.com/oncotarget/ Oncotarget, Supplementary Materials 2015 […]
Figure S1: Effect of COB223 on endothelial cell migration. (A) Scratch assay: Confluent HUVEC cells were pretreated for 24 h without (CTL) or with 2 μg/mL of mitomycin C before a wound was made in the cell monolayer. After wounding, cells were incubated at 37°C in the absence or the presence of 25 μM COB223. Wound closure was measured after 24 h and 48 h of incubation as described in Material and Methods. […]
(B) Boyden chamber assay: The technique is described in Material and Methods. We measured the passage of fluorescently labeled HUVEC cells through a 3 μm-porous membrane in response to fetal calf serum used as a chemo-attractant. […] The Figure represents the mean fluorescence ± SD of duplicate determinations after 24 h or 48h of incubation from two independent experiments. […]

HUVEC cells [2] = assay: 3H-thymidine incorporation, HUVEC; type: cell-based, human; settings: mitomycin C-treated cells vs untreated, data not shown
Description: Cells were treated with molecules in complete medium. After 22 h, 1 μCi per well H^3 thymidine was added for 2 hours. Cells are then fixed by 10% trichloroacetic acid and harvested with 0.2N NaOH, 1% SDS. Radioactivity was measured in a beta counter.

| Compound | melting point [°C] | water solubility (Water solubility) | IC50 (3T3-GFP cells) [µM] | IC50 (HMEC-GFP cells) [µM] | wound healing (HUVEC cells [1]) | 3H-thymidine incorporation (HUVEC cells [2]) |
| --- | --- | --- | --- | --- | --- | --- |
| CN(C)c1cccc2c(S(=O)(=O)NCCCNS(=O)(=O)c3cccc4c(N(C)C)cccc34)cccc12 [Compound 05-06-F11, 1,3-bis [5-(Dimethylamino)naphthalene-1-sulfonamido] diaminopropane] | 90 | lack of water solubility | 40 | 15 |  |  |
| CO[C@@]12[C@H](COC(N)=O)C3=C(C(=O)C(C)=C(N)C3=O)N1C[C@@H]1N[C@@H]12 [mitomycin C, reference compound] |  |  |  |  | slowed down | complete inhibition |
| CN(C)c1cccc2c(S(=O)(=O)NCCOCCOCCNS(=O)(=O)c3cccc4c(N(C)C)cccc34)cccc12 [COB295, 5-Dimethylamino-N-(2-[2-{2-(5-(dimethylamino)naphthalene-1-sulfonamido)ethoxy}ethoxy]ethyl)naphthalene-1-sulfonamide] |  | lack of water solubility |  | 5 |  |  |
